Test results published in patent US5202243A, “Method of hydroxylating 3-[2-(benzoxazol-2-yl)ethyl]-5-ethyl-6-methyl-2-(1H)-pyridinone by incubation with liver slices” (Merck & Co., Inc., priority 1992, dated 1993).

Columns and labels:
[1] = Incubation with rat liver slices (metabolism); assay type: in vitro ADME; conditions: four hours
Excerpt: Ethyl acetate extraction gave a recovery of ~70% of the tritiated material, while ~25% (~9 HPLC peaks) remained in the aqueous residue.

[2] = target: T1, recombinant HIV reverse transcriptase (HIV RTR) (Human immunodeficiency virus type 1 group M subtype B, UniProt P04585); experiment: Reverse transcriptase assay (incorporation of tritiated dGMP into acid-precipitable cDNA); assay type: biochemical; conditions: [dGTP] and poly r(C).oligo d(G)12-18 at approx. Km; 37° C., 45 minutes; read-out: calculated IC50
T1 construct: recombinant HIV reverse transcriptase (HIV RTR)
Protocol: The assay measures the incorporation of tritiated deoxyguanosine monophosphate by recombinant HIV reverse transcriptase (HIV RTR) (or other RT) into acid-precipitable cDNA at the Km values of dGTP and poly r(C).oligo d(G)12-18.
Thirty uL of a reaction mixture containing equal volumes of: 500 mM Tris.HCl (pH 8.2), 300 mM MgCl2, 1200 mM KCl, 10 mM DTT, 400 μg/mL poly r(c).oligo d(G) [prepared by dissolving 1.5 mg (25 U) poly r(C).oligo d(G) in 1.5 ml sterile distilled H2 O and diluting to 400 μg/ml], 0.1 μCi/μl [^3 H] dGTP, 160 μM dGTP, were added to 10 μl sterile distilled H2 O, and 2.5 μl of potential inhibitor. An aliquot of 10 μL of 5 nM purified HIV RTR was added to initiate the reaction. The mixture was incubated at 37° C. for 45 minutes.
After incubation is complete, the tubes were cooled in ice for 5 minutes. Ice-cold 13% TCA containing 10 mM NaPPi (200 μl) are added and the mixture incubated on ice for 30 minutes. The precipitated cDNA is removed by filtration using presoaked glass filters [TCA, NaPPi ]. The precipitate is then washed with 1N HCl, 10 mM NaPPi.
The filter discs are then counted in a scintillation counter.
Under these conditions [dGTP] and poly r(C).oligo d(G)12-18 each are approximately equal to the appropriate Km value. Approximately 5-6,000 cpm of [^3 H] GMP are incorporated into acid-precipitable material. The RT reaction is concentration- and time-dependent.

| SMILES | metabolised at 4 h ([1]; tritiated compound 14.18 μmol, rat liver slices 6.1 g, Williams Medium E, pH 7.4, 37° C.) [%] | IC50 [2] [nM] | radioactive HPLC peak, % of the total metabolites ([1]; ethyl acetate extract of the rat liver slice incubation of the parent compound) [%] |
| --- | --- | --- | --- |
| CCc1cc(CCc2nc3ccccc3o2)c(O)nc1C [compound (II), 3-[2-(Benzoxazol-2-yl)ethyl]-5-ethyl-6-methyl-2-(1H)-pyridinone] | ~32 |  |  |
| CCc1cc(CCc2nc3ccccc3o2)c(=O)[nH]c1CO [compound (I), 3-[2-(benzoxazol-2-yl)ethyl]-5-ethyl-6-hydroxymethyl-2 (1H)-pyridinone] |  | ~44 | 6 |
